{
  "source": "patent US9169509B2",
  "about": "“Topoisomerase 2b as a predictor of susceptibility to anthracycline-induced cardiotoxicity” (Board of Regents, The University of Texas System, priority 2013, dated 2015)",
  "key": {"[1]": {"tested_on": "PGC-1α and PGC-1β promoters", "test": "Chromatin immunoprecipitation with Top2b antibody at PGC-1 promoters", "assay_type": "cell-based, mouse", "settings": "HL-1 cells (DOX 2 h) and cardiomyocytes isolated 16 h after 25 mg/kg ip", "experimental": "(§1) FIGS. 7a-e: a, b. PGC-1 expression in HL-1 cells. […] Expression was measured with RT-qPCR. c, d. CHiP analysis in HL-1 cells. HL-1 cardiomyocytes were treated with (right bars) or without (left bars) DOX ([…]) for 2 hrs and isolated for ChIP using the Top2β antibody. The eluted DNA and Input were PCR amplified to detect specific promoter regions represented in the schematic above the respective ChIP data. In the presence of DOX, the Top2b is readily bound to Region #1 and Region #3 of the PGC-1α promoter (c) and Region #1 and #2 of the PGC-1β promoter (d). e. CHiP study in cardiomyocytes. Cardiomyocytes were isolated from control (n=4) and Dox-treated (n=4) mice and subject to ChIP with the Top2b antibody. The data represent real-time PCR ratios for the fold-enrichment of Top2b at the respective promoters. Top2β binds the Region #1 of the PGC-1α and PGC-1β promoters efficiently following Dox treatment.\nHL-1 cells were treated with or without DOX (1 μM) for 2 h and subsequently evaluated using the ChIP protocol as previously published (24-26). For ChIP assay on isolated cardiomyocytes, mice were treated with doxorubicin (25 mg/kg, ip) or drug vehicle. […] For each individual treatment sample, the eluted ChIP product was normalized to the Input product to rule out differences in total DNA quantities between control and Dox-treatment samples. […]"}, "HL-1 cells": {"tested_on": "HL-1 cells", "test": "PGC-1 expression in HL-1 cells by RT-qPCR", "assay_type": "cell-based", "settings": "doxorubicin 1 μm for 2 or 4 hours", "experimental": "as §1, with “In the presence of DOX, the Top2b is readily bound to Region #1 and Region #3 of the PGC-1α promoter (c) and Region #1 and #2 of the PGC-1β promoter (d). e.” left out, “promoters.” for “promoters. Top2β binds the Region #1 of the PGC-1α and PGC-1β promoters efficiently following Dox treatment.”"}, "cardiomyocytes": {"tested_on": "cardiomyocytes", "test": "Oxygen consumption rate (Seahorse XF96) of isolated cardiomyocytes", "assay_type": "in vivo, mouse", "settings": "wild type cardiomyocytes, 72 hrs after doxorubicin 25 mg/kg; not in Top2b deleted", "experimental": "FIGS. 5a-c: a. Determination of oxygen consumption rate (OCR). Cardiomyocytes were isolated from hearts of Top2b^+/+ and Top2b^Δ/Δ mice 72 hrs after treatment with doxorubicin (25 mg/kg; right bars) or drug vehicle (left bars). The cardiomyocytes were seeded in 96-well plates for oxygen consumption measurement using a Seahorse XF96 instrument. OCR was measured continuously for 90 min in […] from each mouse. The basic OCR was hardly changed during the 90 min measurement, therefore, the OCR at 90 min was compared among the groups. After measurement, the number of cells was counted. Results were normalized as pmoles of oxygen consumed per min per 1,000 cells. Bars represent means±SEM. Asterisk indicates statistically significant difference (p<0.05). b. ROS production in the hearts. Representative images of heart sections stained with Dihydroethidium (DHE), which, after being oxidized, intercalates into DNA and stains the nuclei red. Hearts were harvested 16 hrs after doxorubicin treatment (25 mg/kg) and snap-frozen as described. Heart sections were stained with DHE immediately. […] Quantification of ROS production in FIG. 5b. The numbers of DHE-positive and total nuclei were counted as described and the percentage of DHE-positive nuclei was determined. Quantitative data (mean±SEM) were shown as a bar graph below the images. […]"}, "heart sections": {"tested_on": "heart sections", "test": "Detection of reactive oxygen species (DHE staining) in heart sections", "assay_type": "in vivo, mouse", "description": "The hearts were isolated on ice, embedded in OCT, snap frozen in liquid nitrogen, sectioned into 5 μm-thick slices, and ROS generation was detected immediately by using dihydroethidium (DHE). Doxorubicin treatment generated ROS in the hearts of Top2b^+/+ mice, but this was reduced by 70% in Top2b^Δ/Δ mice (FIGS. 5b,c).\nThe hearts were perfused with ice-cold PBS and quickly removed. The hearts were embedded in OCT and snap-frozen in liquid nitrogen. Series of 5 μm-thick slices were sectioned from the heart immediately. Tissue sections were then stained with Dihydroethidium (DHE, Invitrogen) for 15 m, followed by staining with DAPI (1 μg/ml, Sigma). Tissue slides were sealed and examined with an Olympus epifluorescence microscope (Model BX51). The numbers of DHE-positive nuclei and the total nuclei were counted in 5 microscopic fields (400×) per section. Five heart sections from each mouse were counted to determine the percentage of the DHE-positive nuclei."}},
  "data": [
    {"compound": "COc1cccc2c1C(=O)c1c(O)c3c(c(O)c1C2=O)C[C@@](O)(C(=O)CO)C[C@@H]3O[C@H]1C[C@H](N)[C@H](O)[C@H](C)O1", "note": "[doxorubicin]", "values": [
      {"measurement": "Top2b binding to the promoter of the PGC-1α and PGC-1β genes in the presence of doxorubicin (ChIP)", "setting": "[1]", "result": "binds avidly"},
      {"measurement": "Expression of PGC-1α", "setting": "HL-1 cells", "result": "Reduced expression"},
      {"measurement": "Expression of PGC-1β", "setting": "HL-1 cells", "result": "Reduced expression"},
      {"measurement": "Oxygen consumption rate (OCR)", "setting": "cardiomyocytes", "result": "significantly reduced"},
      {"measurement": "Reduction of doxorubicin-generated ROS in Top2bΔ/Δ mice versus Top2b+/+ mice", "setting": "heart sections; 16 hrs after doxorubicin 25 mg/kg", "result": 70, "unit": "%"},
      {"measurement": "ROS generation (DHE)", "setting": "heart sections; Top2b+/+ hearts, chronic doxorubicin 5 mg/kg once a week for 5 weeks", "result": "generation of ROS"},
      {"measurement": "ROS generation in the hearts (DHE-positive nuclei)", "setting": "heart sections; Top2b+/+ mice, 16 hrs after doxorubicin 25 mg/kg", "result": "generated ROS"}
    ]}
  ]
}
